From patent publication US20070172957A1, “Methods of identifying anti-inflammatory macrolides” (TAISHO PHARMACEUTICAL CO., LTD., priority 2004, published 2007)

Test system: genes predictive for the anti-inflammatory macrolide effect
Test: Genes statistically predictive of Clari response: differentially expressed with Clari but not the inactive macrolides MAA or Josa (Appendix E)
Type: cell-based
Excerpt: In the case of the above-mentioned (i) related to arachidonic acid biosynthesis, specifically, methods of the embodiment involve assaying whether a test macrolide alters biosynthesis of arachidonic acid, alters the expression or activities of enzymes involved in the biosynthesis or activation of arachidonic acid (e.g., arachidonic acid CoA synthetase, delta-6 desaturase, fatty acid elongase, and delta-5 desaturase, AA-related genes in Tables 2 and 3), or alters the expression of genes identified as predictive for the anti-inflammatory macrolide effect (Appendix E). Assays in which arachidonic acid or gene expression or enzymatic activity is detected can be carried out after contacting a cell with a test macrolide. Any cell line that secretes prostaglandin or produces arachidonic acid can be used. Epithelial and macrophages lines (e.g., A549 or THP-1) are suitable for this purpose; other cell lines can be identified by carrying out assays such as those described in the specific Examples, below. Alternatively, screening assays can be carried out after adding a test macrolide to an in vitro cell system (e.g., a cellular extract or liver microsome preparation) or an in vitro enzyme assay system.

CC[C@H]1OC(=O)[C@H](C)[C@@H](O[C@H]2C[C@@](C)(OC)[C@@H](O)[C@H](C)O2)[C@H](C)[C@@H](O[C@@H]2O[C@H](C)C[C@H](N(C)C)[C@H]2O)[C@](C)(OC)C[C@@H](C)C(=O)[C@H](C)[C@@H](O)[C@]1(C)O [clarithromycin]
group mean, gene BCKDK (SpotID 47949, MAA and Josa vs. Clari): 0.94 | group mean, gene DNASE1L1 (SpotID 47950, MAA and Josa vs. Clari): 1.06 | mean group, DNASE1L1 (SpotID 47950, pooled group mean): 1.03 | group mean, gene COX15 (SpotID 47951, MAA and Josa vs. Clari): 0.94 | mean group, USF2 (SpotID 47973, pooled group mean): 1.05 | group mean, gene THBS1 (SpotID 47987, MAA and Josa vs. Clari): 0.60 | mean group, THBS1 (SpotID 47987, pooled group mean): 0.71 | mean group, RPN2 (SpotID 47988, pooled group mean): 1.02 | group mean, gene PTGER1 (SpotID 47995, MAA and Josa vs. Clari): 0.73 | group mean, gene CTSH (SpotID 48000, MAA and Josa vs. Clari): 1.22 | mean group, CUTL1 (SpotID 48004, pooled group mean): 1.02 | group mean, gene BCL2L2 (SpotID 48006, MAA and Josa vs. Clari): 1.02 | mean group, SRF (SpotID 48026, pooled group mean): 1.03 | group mean, gene SCN1B (SpotID 48121, MAA and Josa vs. Clari): 1.07 | mean group, FRDA (SpotID 48137, pooled group mean): 0.90 | group mean, gene SFRS7 (SpotID 48149, MAA and Josa vs. Clari): 0.85 | mean group, SFRS7 (SpotID 48149, pooled group mean): 0.88 | group mean, gene ZAP3 (SpotID 48160, MAA and Josa vs. Clari): 0.92 | mean group, ZAP3 (SpotID 48160, pooled group mean): 0.95 | group mean, gene SNAPC1 (SpotID 48182, MAA and Josa vs. Clari): 0.87 | group mean, gene OPA1 (SpotID 48192, MAA and Josa vs. Clari): 0.90 | group mean, gene BAT8 (SpotID 48214, MAA and Josa vs. Clari): 1.11 | group mean, gene MAPK12 (SpotID 48233, MAA and Josa vs. Clari): 1.05 | mean group, MAPK12 (SpotID 48233, pooled group mean): 1.03 | group mean, gene DAXX (SpotID 48235, MAA and Josa vs. Clari): 0.93 | group mean, gene GRB2 (SpotID 48266, MAA and Josa vs. Clari): 1.06 | mean group, GRB2 (SpotID 48266, pooled group mean): 1.04 | group mean, gene ARHC (SpotID 48280, MAA and Josa vs. Clari): 1.01 | group mean, gene GCN5L1 (SpotID 48301, MAA and Josa vs. Clari): 1.02 | mean group, GCN5L1 (SpotID 48301, pooled group mean): 1.01 | group mean, gene FN1 (SpotID 48328, MAA and Josa vs. Clari): 0.53 | group mean, gene DNMT1 (SpotID 48333, MAA and Josa vs. Clari): 0.79 | mean group, CCT3 (SpotID 48345, pooled group mean): 1.03 | group mean, gene FN1 (SpotID 48348, MAA and Josa vs. Clari): 0.53 | group mean, gene CNOT2 (SpotID 48363, MAA and Josa vs. Clari): 0.92 | group mean, gene MAPK9 (SpotID 48365, MAA and Josa vs. Clari): 0.92 | mean group, MAPK9 (SpotID 48365, pooled group mean): 0.94 | group mean, gene CNOT2 (SpotID 48396, MAA and Josa vs. Clari): 0.91 | group mean, gene HIF1A (SpotID 48397, MAA and Josa vs. Clari): 0.89 | group mean, gene MGEA5 (SpotID 48411, MAA and Josa vs. Clari): 1.19 | mean group, MGEA5 (SpotID 48411, pooled group mean): 1.13 | group mean, gene SERPINB1 (SpotID 48415, MAA and Josa vs. Clari): 1.32 | mean group, SERPINB1 (SpotID 48415, pooled group mean): 1.28 | group mean, gene M6PR (SpotID 48451, MAA and Josa vs. Clari): 1.12 | group mean, gene DDC (SpotID 48456, MAA and Josa vs. Clari): 0.94 | mean group, DDC (SpotID 48456, pooled group mean): 0.97 | mean group, BARD1 (SpotID 48461, pooled group mean): 0.86 | group mean, gene MCM5 (SpotID 48470, MAA and Josa vs. Clari): 0.68 | group mean, gene RBM3 (SpotID 48471, MAA and Josa vs. Clari): 0.87 | mean group, SpotID 48486 (SpotID 48486 (gene symbol not given), pooled group mean): 0.94 | group mean, gene RPL13A (SpotID 48500, MAA and Josa vs. Clari): 0.90 | mean group, RPL13A (SpotID 48500, pooled group mean): 0.92 | group mean, gene USP24 (SpotID 48508, MAA and Josa vs. Clari): 0.87 | group mean, gene ARAF1 (SpotID 48521, MAA and Josa vs. Clari): 0.95 | mean group, ARAF1 (SpotID 48521, pooled group mean): 0.98 | group mean, gene APLP2 (SpotID 48530, MAA and Josa vs. Clari): 1.15 | mean group, APLP2 (SpotID 48530, pooled group mean): 1.10 | mean group, NFE2L1 (SpotID 48557, pooled group mean): 1.06 | mean group, XBP1 (SpotID 48620, pooled group mean): 1.10 | group mean, gene DIP2 (SpotID 48643, MAA and Josa vs. Clari): 0.87 | group mean, gene KIAA0323 (SpotID 48644, MAA and Josa vs. Clari): 1.14 | group mean, gene SDCBP (SpotID 48646, MAA and Josa vs. Clari): 1.11 | mean group, SDCBP (SpotID 48646, pooled group mean): 1.08 | mean group, FECH (SpotID 48654, pooled group mean): 0.98 | group mean, gene CHK (SpotID 48672, MAA and Josa vs. Clari): 1.01 | group mean, gene HSPBP1 (SpotID 48693, MAA and Josa vs. Clari): 0.87 | mean group, HSPBP1 (SpotID 48693, pooled group mean): 0.91 | group mean, gene SIGIRR (SpotID 48705, MAA and Josa vs. Clari): 1.12 | group mean, gene P4HA1 (SpotID 48707, MAA and Josa vs. Clari): 1.25 | mean group, P4HA1 (SpotID 48707, pooled group mean): 1.18 | group mean, gene MKNK2 (SpotID 48713, MAA and Josa vs. Clari): 1.22 | mean group, PPP3CB (SpotID 48717, pooled group mean): 0.95 | group mean, gene IKKE (SpotID 48725, MAA and Josa vs. Clari): 0.97 | mean group, IKKE (SpotID 48725, pooled group mean): 0.94 | mean group, RALA (SpotID 48732, pooled group mean): 1.06 | mean group, MAFB (SpotID 48747, pooled group mean): 0.93 | group mean, gene KIAA0217 (SpotID 48804, MAA and Josa vs. Clari): 0.85 | mean group, KIAA0217 (SpotID 48804, pooled group mean): 0.88
